The values that follow come from patent US20080107619A1, “Carbohydrate based cellulase inhibitors as feeding stimulants in termites” (University of Florida Research Foundation, Inc., priority 2006, published 2008).

What all share (format): biochemical, R. flavipes
What all share (details): foregut/salivary gland/midgut (endogenous) and hindgut (symbiotic) fractions, FIG. 4

The target in assay [1] is endoglucanase. The assay is described as follows: In vitro endoglucanase inhibition, CMC assay (I50 determination). On the procedure: (§1) Gut dissections were carried out for cellulase distribution and inhibition studies. For dissections, termites were immobilized on ice, decapitated, and the entire digestive tract removed through a small incision made in the abdominal exoskeleton. For cellulase distribution studies, dissected guts were divided into three regions: (i) salivary gland+foregut, (ii) midgut and (iii) hindgut. For inhibition studies, guts were divided into two major components that included: (i) foregut, salivary gland and midgut, and (ii) hindgut. […]
(§2) Cellulase activity assays were adapted from Han et al. in “Characterization of a bifunctional cellulase and its structural gene,” J. Biol. Chem. 270 (1995) 26012-26019, with optimization for a 96-well microplate format. […] Color was allowed to develop on ice for 15 min before measuring absorbance at 540 nm relative to a glucose standard curve.
The efficacy of the three carbohydrate-based cellulase inhibitors CBI (FIG. 1D), FMG (FIG. 1E) and FMCB (FIG. 1F) was tested against two different gut enzyme sources that included (i) endogenous termite cellulases from salivary gland, foregut and midgut, and (ii) symbiotic cellulases from the hindgut. […] Percent inhibition was calculated relative to methanol controls. […]

Assay [2] has as its target exoglucanase. In words: In vitro exoglucanase inhibition, pNPC assay (I50 determination). As for the experimental part:
as §1, §2
(§3) The hydrolysis product of both the pNPC and pNPG substrates is p-nitrophenol, which is yellow in color and permits for direct quantification of activity in a kinetic assay. pNPC and pNPG assays were initially incubated at 32° C. for 20 min before measuring the release of the product, p-nitrophenol, at 420 nm. The absorbance of reactions was read every 2 min for 1 hr and activity was determined based on rate of absorbance change. […]

Assay [3] deals with β-glucosidase. In words: In vitro β-glucosidase inhibition, pNPG assay (I50 determination). On the procedure:
as §1, §2, §3

For `OC[C@@H]1[C@@H](O[C@@H]2O[C@H](CO)[C@@H](O)[C@H](O)[C@H]2O)[C@H](O)[C@@H](O)c2nccn21` [CBI, cellobioimidazole], the “I50 against endoglucanase activity” value in assay [1] is listed as “virtually no activity”. The “I50 against exoglucanase activity” value in assay [2] is reported as “I50s in the nM-μM range”. In addition, in assay [3], the “I50 against β-glucosidase activity” value is reported as “I50s in the nM-μM range”.

With fluoromethyl glucose [FMG], the “I50 against endoglucanase activity” value in assay [1] was “virtually no inhibitory properties”. Moreover, the “I50 against exoglucanase activity” value in assay [2] is reported as “virtually no inhibitory properties”. The “I50 against β-glucosidase activity” value in assay [3] is “virtually no inhibitory properties”.
